ChEMBL document CHEMBL4610019, “Novel hybrid molecules of 3,5-bis(benzylidene)-4-piperidones and dichloroacetic acid which demonstrate potent tumour-selective cytotoxicity” (Bioorg Med Chem Lett, 2020)
Active and inactive are the calls of the source. The calls are words filed in the database; no cut-off is given here.

Assays:
[1] = test system: CCD-841CoN; assay: Cytotoxicity against human CRL1790 cells assessed as inhibition of cell growth; type: cell-based
[2] = test system: HCT-116; assay: Cytotoxicity against human HCT116 cells assessed as inhibition of cell growth; type: functional, cell-based
[3] = Selectivity index, ratio of IC50 for human CRL1790 cells assessed as inhibition of cell growth to IC50 for human HCT116 cells assessed as inhibition of cell growth; type: toxicity; conditions: CRL1790 cells versus HCT116 cells, read-out: Ratio IC50
[4] = test system: HCT-116; assay: Cell cycle arrest in human HCT116 cells assessed as accumulation of diploid cells at 0.03 uM (reference value: 2.5 %); type: functional
[5] = test system: HCT-116; assay: Potency index, ratio of 5-fluorouracil IC50 to test compound IC50 for human HCT116 cells assessed as inhibition of cell growth; type: functional
[6] = test system: HCT-116; assay: Cell cycle arrest in human HCT116 cells assessed as accumulation at S phase at 0.03 uM (reference value: 18.4 %); type: functional
[7] = test system: HCT-116; assay: Induction of ROS generation in human HCT116 cells assessed as increase in ROS level at IC50; type: functional, cell-based
[8] = test system: HCT-116; assay: Induction of apoptosis in human HCT116 cells assessed as apoptotic cells at 0.03 uM (reference value: 2.4 %); type: functional
[9] = test system: HCT-116; assay: Cell cycle arrest in human HCT116 cells assessed as accumulation at G0/G1 phase at 0.03 uM (reference value: 46.8 %); type: functional
[10] = test system: HCT-116; assay: Induction of ROS generation in human HCT116 cells assessed as increase in ROS level at 2 times IC50; type: functional, cell-based
[11] = test system: HCT-116; assay: Induction of mitochondrial membrane potential loss in human HCT116 cells at IC50; type: functional, cell-based
[12] = test system: HCT-116; assay: Induction of mitochondrial membrane potential loss in human HCT116 cells at 2 times IC50; type: functional, cell-based
[13] = test system: HCT-116; assay: Cell cycle arrest in human HCT116 cells assessed as accumulation at G2/M phase at 0.03 uM (reference value: 29.4 %); type: functional
[14] = test system: HCT-116; assay: Cell cycle arrest in human HCT116 cells assessed as accumulation at G2/M phase at 10.96 uM (reference value: 29.4 %); type: functional
[15] = test system: HCT-116; assay: Induction of apoptosis in human HCT116 cells assessed as apoptotic cells at 10.96 uM (reference value: 2.4 %); type: functional
[16] = test system: HCT-116; assay: Cell cycle arrest in human HCT116 cells assessed as accumulation of diploid cells at 10.96 uM (reference value: 2.5 %); type: functional
[17] = test system: HCT-116; assay: Cell cycle arrest in human HCT116 cells assessed as accumulation at S phase at 10.96 uM (reference value: 18.4 %); type: functional
[18] = test system: HCT-116; assay: Cell cycle arrest in human HCT116 cells assessed as accumulation at G0/G1 phase at 10.96 uM (reference value: 46.8 %); type: functional
[19] = test system: HCT-116; assay: Cell cycle arrest in human HCT116 cells assessed as accumulation at G2/M phase at 0.23 uM (reference value: 29.4 %); type: functional
[20] = test system: HCT-116; assay: Cell cycle arrest in human HCT116 cells assessed as accumulation of diploid cells at 0.23 uM (reference value: 2.5 %); type: functional
[21] = test system: HCT-116; assay: Induction of apoptosis in human HCT116 cells assessed as apoptotic cells at 0.23 uM (reference value: 2.4 %); type: functional
[22] = test system: HCT-116; assay: Cell cycle arrest in human HCT116 cells assessed as accumulation at G0/G1 phase at 0.23 uM (reference value: 46.8 %); type: functional
[23] = test system: HCT-116; assay: Cell cycle arrest in human HCT116 cells assessed as accumulation at S phase at 0.23 uM (reference value: 18.4 %); type: functional
[24] = Stability of compound in mixture of DMSO and phosphate buffer at 37 degree C incubated for 48 hrs by H-NMR spectroscopy; type: physicochemical
[25] = test system: HCT-116; assay: Cell cycle arrest in human HCT116 cells assessed as accumulation at G2/M phase at 0.28 uM (reference value: 29.4 %); type: functional
[26] = test system: HCT-116; assay: Cell cycle arrest in human HCT116 cells assessed as accumulation at G0/G1 phase at 10.96 uM (reference value: 0.28 %); type: functional
[27] = test system: HCT-116; assay: Induction of apoptosis in human HCT116 cells assessed as apoptotic cells at 0.28 uM (reference value: 2.4 %); type: functional
[28] = test system: HCT-116; assay: Cell cycle arrest in human HCT116 cells assessed as accumulation at S phase at 0.28 uM (reference value: 18.4 %); type: functional
[29] = test system: HCT-116; assay: Cell cycle arrest in human HCT116 cells assessed as accumulation of diploid cells at 0.28 uM (reference value: 2.5 %); type: functional

| Compound | IC50 [1] [µM] | IC50 [2] [µM] | selectivity ratio [3] | also measured |
| --- | --- | --- | --- | --- |
| COc1ccc(/C=C2\CN(C(=O)C(Cl)Cl)C/C(=C\c3ccc(OC)c(OC)c3)C2=O)cc1OC | 10.6 | 0.11 | 96.4 |  |
| O=C1/C(=C/c2ccc(F)cc2)CN(C(=O)C(Cl)Cl)C/C1=C\c1ccc(F)cc1 | 14.6 | 0.05 | 292 |  |
| O=C1/C(=C/c2ccccc2)CNC/C1=C\c1ccccc1 | 9.45 | 3.5 | 2.7 |  |
| O=C1/C(=C/c2ccc([N+](=O)[O-])cc2)CN(C(=O)C(Cl)Cl)C/C1=C\c1ccc([N+](=O)[O-])cc1 | 11.1 | 0.03 | 370 | Activity [4]: 2.2%; Ratio IC50 [5]: >100; Activity [6]: 21.4%; Activity [7]: Active; Activity [8]: 3.6%; Activity [9]: 44.4%; Activity [10]: Active; Activity [11]: Active; Activity [12]: Active; Activity [13]: 27.8% |
| CN(C)c1ccc(/C=C2\CN(C(=O)C(Cl)Cl)C/C(=C\c3ccc(N(C)C)cc3)C2=O)cc1 | 9.12 | 13.3 | 0.69 | Activity [14]: 29.9%; Activity [15]: 4.6%; Activity [7]: Active; Activity [16]: 1.4%; Activity [10]: Active; Activity [11]: inactive; Activity [17]: 20.8%; Activity [18]: 42.9%; Activity [12]: inactive |
| O=C1/C(=C/c2ccc(F)c(F)c2)CN(C(=O)C(Cl)Cl)C/C1=C\c1ccc(F)c(F)c1 | 11.1 | 0.06 | 185 |  |
| O=C1/C(=C/c2ccc(Cl)c(Cl)c2)CN(C(=O)C(Cl)Cl)C/C1=C\c1ccc(Cl)c(Cl)c1 | 12.2 | 0.04 | 305 | Ratio IC50 [5]: >100 |
| O=C1/C(=C/c2ccccc2)CN(C(=O)C(Cl)Cl)C/C1=C\c1ccccc1 | 12.5 | 0.23 | 54.4 | Activity [7]: Active; Activity [19]: 29.6%; Activity [20]: 1.8%; Activity [10]: Active; Activity [11]: Active; Activity [21]: 3.6%; Activity [22]: 44.7%; Activity [23]: 19.9%; Activity [12]: Active; Stability [24]: Stable |
| O=C1/C(=C/c2ccc(Cl)cc2)CN(C(=O)C(Cl)Cl)C/C1=C\c1ccc(Cl)cc1 | 14.9 | 0.13 | 115 |  |
| CC(C)(C)C(=O)N1C/C(=C\c2ccc(OC(=O)C(Cl)Cl)cc2)C(=O)/C(=C/c2ccc(OC(=O)C(Cl)Cl)cc2)C1 | 16.4 | 0.23 | 71.3 |  |
| COc1cc(/C=C2\CN(C(=O)C(Cl)Cl)C/C(=C\c3cc(OC)c(OC)c(OC)c3)C2=O)cc(OC)c1OC | 15.1 | 0.04 | 378 | Ratio IC50 [5]: >100 |
| COc1ccc(/C=C2\CN(C(=O)C(Cl)Cl)C/C(=C\c3ccc(OC)cc3)C2=O)cc1 | 13.2 | 0.27 | 48.9 |  |
| CC(=O)N1C/C(=C\c2ccccc2)C(=O)/C(=C/c2ccccc2)C1 | 20.8 | 0.28 | 74.3 | Activity [25]: 30%; Activity [26]: 45.5%; Activity [7]: Active; Activity [10]: Active; Activity [27]: 3.5%; Activity [11]: Active; Activity [28]: 18.3%; Activity [29]: 2.4%; Activity [12]: Active |
| Cc1ccc(/C=C2\CN(C(=O)C(Cl)Cl)C/C(=C\c3ccc(C)cc3)C2=O)cc1 | 16.2 | 0.03 | 540 | Ratio IC50 [5]: >100 |
| O=C1/C(=C/c2ccc3c(c2)OCO3)CN(C(=O)C(Cl)Cl)C/C1=C\c1ccc2c(c1)OCO2 | 21.1 | 0.32 | 65.9 |  |
| O=C1/C(=C/c2cccc(F)c2)CN(C(=O)C(Cl)Cl)C/C1=C\c1cccc(F)c1 | 14.8 | 0.11 | 135 |  |
| O=C([O-])C(Cl)Cl.[Na+] [SODIUM DICHLOROACETATE] | 12.5 | 14.8 | 0.85 |  |
| O=c1[nH]cc(F)c(=O)[nH]1 [FLUOROURACIL] | 18.7 | 4.02 | 4.65 | Activity [7]: Active; Activity [10]: Active; Activity [11]: Active; Activity [12]: Active |
| O=C1/C(=C/c2ccccc2F)CN(C(=O)C(Cl)Cl)C/C1=C\c1ccccc1F | 11 | 0.21 | 52.4 |  |
| O=C1/C(=C/c2ccc(O)cc2)CN(C(=O)C(Cl)Cl)C/C1=C\c1ccc(O)cc1 | 13.8 | 3.85 | 3.58 |  |
